Laboratory results published in patent publication US8946218B2, “CCR2 receptor antagonists, method for producing the same, and use thereof as medicaments” (Boehringer Ingelheim International GmbH, priority 2010, dated 2015).
pKi: −log10 of the molar value.

target: T1, CCR2 (Homo sapiens, UniProt P41597); assay: Receptor membrane binding assay: [125I]MCP-1 binding to CCR2 on THP-1 cell membranes (SPA beads); details: THP-1 membranes, [125I]MCP-1, bound radioactivity after 8 h; read-out: hKi
T1 construct: Membranes were prepared from THP-1 cells; endogenous in cells; host or cells: THP-1 (human acute monocytic leukaemia cells), membrane preparation
Description: The above exemplary substances have been tested for binding to CCR2 using a binding assay as outlined herein below:
THP-1 cells (human acute monocytic leukaemia cells) were cultured under standardized conditions at 37° C. and 5% CO2 in a humidified incubator. THP-1 cells were cultivated in RPMI 1640 medium (Gibco 21875) containing 1% MEM-NEAA (Gibso 11140) 2 mM L-glutamine, 1.5 g/L sodium bicarbonate, 4.5 g/L glucose, 10 mM HEPES and 1.0 mM sodium pyruvate, 90%; 10% fetal calf serum (FCS Gibco 10500-064).
Membranes were prepared from THP-1 cells. THP-1 cells were centrifuged at 300×g at 4° C. for 10 min. The cell pellet was resuspended in Phosphate Buffer Saline (PBS, including 10 μM Pefabloc and a protease inhibitor mix ‘complete’, Boehringer Mannheim (1 tablet/50 ml)), to a concentration of […]. The membrane preparation was performed by disrupting the cells by nitrogen […] (at 50 bar, for 1 h) in a “Nitrogen Bombe” (Parr Instrument). Cell debris was removed by centrifugation (800×g at 4° C., 1 min). The supernatant was centrifuged at 80000×g, 4° C. for 30 min to sediment the cell membranes. Usually 50 mg of protein (Bradford assay) were yielded from 1×10E9 cells. The membranes were resuspended in 25 mM HEPES, 25 mM MgCl2, 1 mM CaCl2, 10% Glycerine for storage in aliquots at −80° C. in 25 mM HEPES, 25 mM MgCl2, 1 mM CaCl2, 10% Glycerine and stored at −80° C.
Receptor Membrane Binding Assay:
Perkin Elmer NEX 332 Jod 125 MCP-1, Stock: 2200 Ci/mmol solved in 2000 μl assay buffer, stored at −20° C. THP-1 membrane were adjusted with 25 mM HEPES, pH 7.2; 5 mM MgCl2; 0.5 mM CaCl2; 0.2% BSA assay buffer to a concentration of 2.5 μg/15 μl. Amersham Biosciences PVT-WGA Beads (RPNQ0001) were adjusted with assay buffer to a concentration of 0.24 mg/30 μl. For preparation of the membrane-bead-suspension membranes and beads were incubated for 30 min at RT under rotation (60 rpm) with a ratio of 1:2. Test compounds dissolved in 100% DMSO to a concentration of 10 mM and are further diluted with 100% DMSO to 1 mM. All additional compound dilutions were obtained with assay buffer, final 1% DMSO. Compounds, membrane-bead-suspension and [125I]MCP-1 (ca. 25000 cpm/10 μl) were incubated. Bound radioactivity was determined by scintillation counter after 8 h. Determination of affinity of test compounds (dissociation constant hKi) is calculated by iterative fitting of experimental data using the “easy sys” program, which is based on law of mass action (Schittkowski K. (1994), Numerische Mathematik, Vol. 68, 129-142).

T1 sequence (P41597 whole entry): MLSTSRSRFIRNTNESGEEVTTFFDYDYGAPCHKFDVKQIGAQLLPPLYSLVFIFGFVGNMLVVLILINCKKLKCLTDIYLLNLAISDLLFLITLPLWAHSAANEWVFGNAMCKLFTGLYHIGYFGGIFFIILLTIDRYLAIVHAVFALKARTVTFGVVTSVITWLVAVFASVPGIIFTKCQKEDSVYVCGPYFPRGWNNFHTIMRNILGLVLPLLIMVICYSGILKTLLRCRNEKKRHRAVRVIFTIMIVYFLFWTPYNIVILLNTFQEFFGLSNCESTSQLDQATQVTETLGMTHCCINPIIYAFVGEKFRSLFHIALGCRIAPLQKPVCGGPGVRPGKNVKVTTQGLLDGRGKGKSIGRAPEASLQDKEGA

Row | SMILES | pKi
1 | CO[C@@H]1COCC[C@@H]1NC1CCN(C(=O)c2ncnc(Nc3cccc(C(F)(F)F)c3)c2C)CC1 [Example 18] | 8.22
2 | COC1COCCC1NC1CCN(C(=O)c2ncnc(Nc3ccc(Cl)c(Cl)c3)c2C)CC1 (stereo not drawn) [Example 9] | 8.70
3 | COC1COCCC1NC1CCN(C(=O)c2ncnc(Nc3cccc(C(F)(F)F)n3)c2C)CC1 (stereo not drawn) [Example 4] | 6.96
4 | COC1COCCC1NC1CCN(C(=O)c2ncnc(Nc3ccc(Br)cc3)c2C)CC1 (stereo not drawn) [Example 15] | 7.52
5 | CO[C@H]1COCC[C@H]1NC1CCN(C(=O)c2cc(Nc3cccc(C(F)(F)F)c3)nc(C(F)(F)F)n2)CC1 [Example 33] | 7.44
6 | COc1c(Nc2cccc(C(F)(F)F)c2)ncnc1C(=O)N1CCC(N2CCC(N(C)S(C)(=O)=O)CC2)CC1 [Example 21] | 7.64
7 | COC1COCCC1NC1CCN(C(=O)c2ncnc(Nc3cccc(Cl)c3C)c2C)CC1 (stereo not drawn) [Example 13] | 5.52
8 | Cc1c(Nc2ccc3ccccc3c2)ncnc1C(=O)N1CCC(N2CCC(N(C)S(C)(=O)=O)CC2)CC1 [Example 22] | 7.85
9 | COC1COCCC1NC1CCN(C(=O)c2ncnc(Nc3cccc(-c4ccncc4)c3)c2C)CC1 (stereo not drawn) [Example 16] | 6.15
10 | COC1COCCC1NC1CCN(C(=O)c2ncnc(Nc3cccc(OC(F)(F)F)c3)c2C)CC1 (stereo not drawn) [Example 11] | 7.82
11 | COc1c(Nc2cccc(C(F)(F)F)c2)ncnc1C(=O)N1CCC(N[C@@H]2CCOC[C@@H]2OC)CC1 [Example 19] | 7.31
12 | COc1ccc2cc(Nc3ncnc(C(=O)N4CCC(N[C@H]5CCOC[C@H]5OC)CC4)c3C)ccc2c1 [Example 36] | 7.15
13 | Cc1c(Nc2cccc(C(F)(F)F)c2)ncnc1C(=O)N1CCC(N2CCOCC2)CC1 [Example 29] | 7.28
14 | COc1ccc2ccc(Nc3ncnc(C(=O)N4CCC(N[C@@H]5CCOC[C@@H]5OC)CC4)c3C)cc2c1 [Example 40] | 7.08
15 | COc1cc(Nc2ncnc(C(=O)N3CCC(N[C@@H]4CCOC[C@@H]4OC)CC3)c2C)cc2ccccc12 [Example 41] | 6.71
16 | COc1cc(Nc2ncnc(C(=O)N3CCC(N[C@H]4CCOC[C@H]4OC)CC3)c2C)cc2ccccc12 [Example 38] | 7.04
17 | COC1COCCC1NC1CCN(C(=O)c2ncnc(Nc3cccc(C)c3)c2C)CC1 (stereo not drawn) [Example 5] | 6.63
18 | COC1COCCC1NC1CCN(C(=O)c2ncnc(Nc3ccccc3Cl)c2C)CC1 (stereo not drawn) [Example 17] | 5.29

Row | SMILES | pKi
19 | COC1COCCC1NC1CCN(C(=O)c2ncnc(Nc3cccc(F)c3)c2C)CC1 (stereo not drawn) [Example 14] | 6.84
20 | COC1COCCC1NC1CCN(C(=O)c2ncnc(Nc3cc4ccccc4c(C)n3)c2C)CC1 (stereo not drawn) [Example 34] | 6.00
21 | COC1COCCC1NC1CCN(C(=O)c2ncnc(Nc3ccccc3)c2C)CC1 (stereo not drawn) [Example 3] | 6.35
22 | CO[C@H]1COCC[C@H]1NC1CCN(C(=O)c2ncnc(Nc3ccc4ccccc4c3)c2C)CC1 [Example 39] | 7.08
23 | COc1ccc2ccc(Nc3ncnc(C(=O)N4CCC(N[C@H]5CCOC[C@H]5OC)CC4)c3C)cc2c1 [Example 37] | 7.82
24 | CN(C1CCN(C2CCN(C(=O)c3cc(Nc4cccc(C(F)(F)F)c4)ncn3)CC2)CC1)S(C)(=O)=O [Example 8] | 6.40
25 | CO[C@@H]1COCC[C@@H]1NC1CCN(C(=O)c2cc(Nc3cccc(C(F)(F)F)c3)nc(C(F)(F)F)n2)CC1 [Example 32] | 7.19
26 | CO[C@H]1COCC[C@H]1NC1CCN(C(=O)c2nccc(Nc3cccc(C(F)(F)F)c3)c2C)CC1 [Example 28] | 8.00
27 | CO[C@@H]1COCC[C@@H]1NC1CCN(C(=O)c2nccc(Nc3cccc(C(F)(F)F)c3)c2C)CC1 [Example 27] | 8.30
28 | CO[C@@H]1COCC[C@@H]1NC1CCN(C(=O)c2ncnc(Nc3ccc4ccccc4c3)c2C)CC1 [Example 35] | 7.59
29 | COC1COCCC1NC1CCN(C(=O)c2ncnc(Nc3cccc(C(F)(F)F)c3)c2C)CC1 (stereo not drawn) [Example 1] | 7.80
30 | CO[C@H]1COCC[C@H]1NC1CCN(C(=O)c2ccnc(Nc3cccc(C(F)(F)F)c3)c2C)CC1 [Example 26] | 7.34
31 | CO[C@@H]1COCC[C@@H]1NC1CCN(C(=O)c2ccnc(Nc3cccc(C(F)(F)F)c3)c2C)CC1 [Example 25] | 6.78
32 | Cc1c(Nc2cc3ccccc3c(C)n2)ncnc1C(=O)N1CCC(N2CCC(N(C)S(C)(=O)=O)CC2)CC1 [Example 24] | 6.07
33 | COc1c(Nc2cccc(C(F)(F)F)c2)ncnc1C(=O)N1CCC(N[C@H]2CCOC[C@H]2OC)CC1 [Example 20] | 7.59
34 | COC1COCCC1NC1CCN(C(=O)c2ncnc(Nc3cc(Cl)ccc3C)c2C)CC1 (stereo not drawn) [Example 12] | 6.14
35 | CO[C@@H]1COCC[C@@H]1NC1CCN(C(=O)c2cc(Nc3cccc(C(F)(F)F)c3)ncn2)CC1 [Example 7] | 6.86

Other lines, results leading:

Row | pKi | SMILES
36 | 9.40 | CO[C@H]1COCC[C@H]1NC1CCN(C(=O)c2nc(C3CC3)nc(Nc3cccc(C(F)(F)F)c3)c2C)CC1 [Example 33v]
37 | 8.52 | COc1nc(Nc2cccc(C(F)(F)F)c2)c(C)c(C(=O)N2CCC(NC3CCOCC3)CC2)n1 [Example 33w]
38 | 8.52 | COc1nc(Nc2cccc(C(F)(F)F)c2)c(C)c(C(=O)N2CCC(N[C@@H]3CCOC[C@@H]3OC)CC2)n1 [Example 33i]
39 | 7.64 | Cc1c(Nc2ccc(Cl)c(Cl)c2)ncnc1C(=O)N1CCC(N[C@H]2CCOC[C@H]2F)CC1 [Example 33e]
40 | 9.30 | COc1nc(Nc2ccc(Cl)c(Cl)c2)c(C)c(C(=O)N2CCC(N[C@H]3CCOC[C@H]3OC)CC2)n1 [Example 33a]
41 | 9.52 | CO[C@H]1COCC[C@H]1NC1CCN(C(=O)c2nc(C3CC3)nc(Nc3ccc(Cl)c(Cl)c3)c2C)CC1 [Example 33p]
42 | 9.00 | COc1nc(Nc2cccc(C(F)(F)F)c2)c(C)c(C(=O)N2CCC(N[C@H]3CCOC[C@H]3OC)CC2)n1 [Example 33j]
43 | 8.30 | COc1nc(Nc2cccc(C(F)(F)F)c2)c(C)c(C(=O)N2CCC(NC3CCOCC3F)CC2)n1 (stereo not drawn) [Example 33k]
44 | 8.30 | CO[C@H]1COCC[C@H]1NC1CCN(C(=O)c2ncnc(Nc3ccc(Cl)c(Cl)c3)c2C)CC1 [Example 17b]
45 | 8.22 | Cc1c(Nc2ccc(Cl)c(Cl)c2)ncnc1C(=O)N1CCC(NC2CCOCC2)CC1 [Example 33l]
46 | 9.52 | CO[C@@H]1COCC[C@@H]1NC1CCN(C(=O)c2nc(C3CC3)nc(Nc3cccc(C(F)(F)F)c3)c2C)CC1 [Example 33t]
47 | 8.10 | Cc1c(Nc2ccc(Cl)c(Cl)c2)ncnc1C(=O)N1CCC(N[C@@H]2CCOC[C@@H]2F)CC1 [Example 33g]
48 | 9.52 | CO[C@H]1COCC[C@H]1NC1CCN(C(=O)c2nc(C(F)(F)F)nc(Nc3ccc(Cl)c(Cl)c3)c2C)CC1 [Example 33d]
49 | 9.00 | Cc1c(Nc2cccc(C(F)(F)F)c2)nc(C2CC2)nc1C(=O)N1CCC(N[C@H]2CCOC[C@H]2F)CC1 [Example 33u]
50 | 9.15 | COc1nc(Nc2ccc(Cl)c(Cl)c2)c(C)c(C(=O)N2CCC(N[C@@H]3CCOC[C@@H]3OC)CC2)n1 [Example 33b]
51 | 9.15 | COc1nc(Nc2ccc(Cl)c(Cl)c2)c(C)c(C(=O)N2CCC(NC3CCOCC3)CC2)n1 [Example 33m]
52 | 9.70 | CO[C@@H]1COCC[C@@H]1NC1CCN(C(=O)c2nc(C3CC3)nc(Nc3ccc(Cl)c(Cl)c3)c2C)CC1 [Example 33o]
53 | 9.00 | CO[C@@H]1COCC[C@@H]1NC1CCN(C(=O)c2ncnc(Nc3ccc(Cl)c(Cl)c3)c2C)CC1 [Example 17a]
54 | 9.00 | Cc1c(Nc2ccc(Cl)c(Cl)c2)nc(C(F)(F)F)nc1C(=O)N1CCC(NC2CCOCC2)CC1 [Example 33n]
